Measured values from patent publication US20110065919A1, “5-Substituted Indol-3-Carboxylic Acid Derivatives Exhibiting Antiviral Activity a Method for the Production and Use Thereof” (priority 2007, published 2011).
Values after ≈ are worked out from the molar mass of the structure shown. Where two headings read alike, the source gives them in different places.

Key:
[1] = tested on: MDCK tissue culture cells; assay: Cytotoxic action, maximal tolerated concentration in MDCK tissue culture cells
[2] = tested on: influenza A/New Caledonia/20/99 (H1N1) virus reference strain; assay: microbe, parasite or virus in culture; assay type: cell-based; details: for Activity at 10 μg/mL / specific activity in relation to influenza A virus reference strain (H1N1), in words / MIC50: MDCK cells; for MIC50: concentration inhibiting viral reproduction by 50%; for Chemotherapeutic Index: ratio of the MTC to the MIC50
[3] = tested on: influenza A/Aichi/2/69 virus; assay: Murine influenza pneumonia model; assay type: in vivo, mice; details: mean life span, 60 mg/kg/day, survivors counted with d=15
Experimental: (§1) 2. Determination of the efficacy of the compounds in the murine influenza pneumonia model.
(§2) The mice were infected intranasally under light ether anesthesia with the influenza A/Aichi/2/69 ([…]) virus. […] The efficacy of the action of the compounds in the influenza pneumonia model were assessed according to the number of mice surviving after infection with the virus and the increase in mean life span
(§3) The mean life span of the mice was calculated according to the following formula: MSD [mean survival day]=Σ(f(d−1)[…], where f is the number of mice dying on day d; the surviving mice were also included in f, and d in this case was 15; n is the number of mice in the group.

[4] = tested on: influenza A/Aichi/2/69 (H3N3) virus; assay: Murine influenza pneumonia model; assay type: in vivo, mice; details: for Mortality reduction: versus infected control; for Survived: number of mice surviving, n=10, 60 mg/kg/day
Experimental: as §1, §2, §3

Molecule | MTC of the Compounds [1] | efficacy at 10 μg/mL compared with arbidol, in words [2] | Activity at 10 μg/mL [2] | specific activity in relation to influenza A virus reference strain (H1N1), in words [2] | MIC50 [2] | Chemotherapeutic Index [2] | Life Span [3] | Mortality ([4]; 60 mg/kg/day) | chemotherapeutic action compared with arbidol, in words ([4]; 60 mg/kg/day) | Mortality reduction ([4]; 60 mg/kg/day) | Survived [4] | MIC50 ([2]; Influenza A virus, H1N1, read-out: MIC50)
1-{6-Bromo-1-methyl-5-methoxy-2-(phenylthio)methyl-1-H-indol-3-yl}-benzylpiperazine | 40 µg/mL | inferior to arbidol in efficacy | 64.4 | high specific activity | 5.8 µg/mL | 6.9 | 13.1 days | 20% | not inferior to arbidol | 61% | 8 | –
CCOC(=O)c1c(CSc2ccccc2)n(C)c2cc(Br)c(O)c(CN(C)C)c12 [Arbidol, 1-methyl-2-phenylthiomethyl-3-carbethoxy-4-dimethylaminomethyl-5-hydroxy-6-bromindol, reference compound] | 40 µg/mL | – | 100.0 | – | – | 6.7 | 12.2 days | 20% | – | 61% | 8 | 6 µg/mL (≈ 12.6 µM)
COc1cc2c(C(=O)N3CCCC3)c(CSc3ccccc3)n(C)c2cc1Br [B] | 15 µg/mL | did not differ from it | 100.0 | high specific activity | 2.0 µg/mL (≈ 4.35 µM) | 7.5 | – | – | – | – | – | –
COc1cc2c(C(=O)N3CCCCC3)c(CSc3ccccc3)n(C)c2cc1Br [C] | 25 µg/mL | – | 52.1 | low activity | 9.2 µg/mL (≈ 19.4 µM) | 2.7 | – | – | – | – | – | –
